Experiments:
[1] = Water sorption and desorption experiment (DVS hygroscopicity); type: physicochemical; settings: relative humidity 40%-80%, 25° C.
Protocol: Instrument: DVS Intrinsic Plus (SMS, UK).
Method: a sample was placed in a tared sample basket, the weight of the sample was automatically measured, and the sample was analyzed according to the parameters in the table below.
The samples obtained in Example 2 and Example 3 were investigated for sorption and desorption of moisture under the relative humidity of 40%-80% at 25° C. using a dynamic vapor sorption (DVS) instrument to determine the hygroscopicity of various salt forms.

Solubility experiment = settings: for Solubility: deionized water, 25° C.
[2] = Solid stability experiment; type: physicochemical; settings: for Crystalline form: XRPD, initial crystalline form I
Protocol: The sample obtained in Example 2 was investigated for physical stability and chemical stability under the conditions of 40° C./75% RH (open) and 60° C. (sealed) for 7 days, and for physical stability under the conditions of room temperature/92.5% RH (open) for 10 days.
Note: the “/” indicates undetected; the crystalline form results were obtained using the X-ray powder diffraction method.

[3] = Grinding stability experiment; type: physicochemical; settings: XRPD
[4] = system: esophageal squamous cell carcinoma; assay: Phase I clinical trial, effectiveness evaluation; type: in vivo, human
From the text: ORR: the percentage of subjects with complete remission (CR) and partial remission (PR) among all enrolled subjects from the date of the first dose.
DCR: defined as the percentage of subjects with CR, PR, or stable disease (SD) among all enrolled subjects from the date of the first dose.
PR: refers to partial remission, meaning that the sum of the diameters of target lesions has reduced by at least 30% compared to the baseline level.
(§1) Drug: Compound B, tablets.
(§2) 1.1 Inclusion criteria: The main criteria include: (1) an age of 18-70 years old (including 18 years old and 70 years old) when signing an informed consent form; (2) patients with histopathologically or cytologically confirmed unresectable locally advanced or metastatic solid tumors, who have failed or are intolerant to standard treatments, or have no standard treatment regimens available as options; (3) the presence of at least one measurable lesion meeting RECIST v1.1 definition; (4) ECOG performance status (PS) score: 0-1; and so on.
(§3) (1) Dose escalation stage: initial doses: 1 mg, 2 mg, 4 mg, 6 mg, 9 mg, 12 mg, 16 mg, 20 mg, and 25 mg, administered orally once daily. After 7-days single administration stage, 28-days multiple administration stage began (continuous administration, with every 28 days constituting one cycle, until progressive disease or intolerable toxic reactions occurred). The subjects who had completed the treatment and observation for the 7-days single administration stage and the first cycle of the 28-days multiple administration stage, and who had acquired clinical benefit and could tolerate the drug treatment, could enter an extended treatment period based on their willingness. In the extended treatment period, every 4 weeks constituted one cycle.
(§4) (2) Dose expansion stage: 4 mg and 6 mg, administered orally once daily. For the continuous administration group, every 4 weeks constituted 1 cycle; for the group of 3-week administration and then 1-week interruption, every 4 weeks constituted one cycle; for the group of 2-week administration and then 1-week interruption, every 3 weeks constituted 1 cycle.
(§5) 1.3 Assessment of results: (1) Effectiveness evaluation: In this study, for the dose escalation stage, efficacy evaluation and data analysis were performed at the 4th week, 8th week and 12th week after the first day of the 28-days multiple administration stage and then every 8 weeks thereafter. […]

[5] = system: nasopharyngeal squamous cell carcinoma; assay: Phase I clinical trial, effectiveness evaluation; type: in vivo, human
From the text: as §1, §2, §3, §4
(§6) 1.3 Assessment of results: (1) Effectiveness evaluation: In this study, for the dose escalation stage, efficacy evaluation and data analysis were performed at the 4th week, 8th week and 12th week after the first day of the 28-days multiple administration stage and then every 8 weeks thereafter. For the dose expansion stage, efficacy evaluation on the group of 3-week administration and then 1-week interruption was performed at the 4th week, 8th week and 12th week after the first day of the 28-days multiple administration stage and then every 8 weeks thereafter; efficacy evaluation on the group of 2-week administration and then 1-week interruption was performed every 6 weeks after the first day of the 28-days multiple administration stage. The indicators of effectiveness include objective response rate (ORR), progression-free survival (PFS), overall survival (OS), disease control rate (DCR), and duration of response (DOR). (2) Safety evaluation: including evaluation of vital signs and physical examinations, electrocardiograms, ECOG PS scores, laboratory tests, adverse events, and the like.

[6] = system: pulmonary squamous cell carcinoma; assay: Phase I clinical trial, effectiveness evaluation; type: in vivo, human
From the text: as §1, §2, §3, §4, §6

[7] = Phase I clinical trial, safety evaluation; type: in vivo, human; settings: monotherapy, patients with solid tumors
From the text: as §1, §2, §3, §4, §5

[8] = 40° C./75% RH (open) for 7 days
[9] = of 41 patients with esophageal squamous cell carcinoma

**Q.** With Phosphate as the compound, how does the Hygroscopicity [1] read?
**A.** 3.75%

**Q.** What about the Solubility (Solubility experiment) of the same compound?
**A.** 3500 µg/mL

**Q.** Which Hygroscopicity [1] does the source give for Tartrate here?
**A.** 2.86%

**Q.** What does the source list for Fumarate?
**A.** Hygroscopicity [1]: 2.11. %; Solubility (Solubility experiment): 1300 µg/mL

**Q.** What does the source list for Maleate?
**A.** Hygroscopicity [1]: 0.81%; Hygroscopicity (words) [1]: slightly hygroscopic; Solubility (Solubility experiment): 2000 µg/mL

**Q.** Which results are given for CNC(=O)c1cccc2cc(Oc3ccnc(NC(=O)c4ccc(N5C[C@@H](C)N[C@@H](C)C5)cc4)c3)ccc12 [Compound B]?
**A.** Hygroscopicity [1]: 0.65%; Hygroscopicity (words) [1]: slightly hygroscopic; Purity [2, 8]: 99.86%; Crystalline form [2, 8]: Not changed; Chemical stability ([2]; 40° C./75% RH and 60° C. for 7 days): good chemical stability; Physical stability of crystalline form I ([2]; 40° C./75% RH, 60° C. for 7 days, 92.5% RH for 10 days): good physical stability; Purity ([2]; 60° C. (sealed) for 7 days): 99.85%; Crystalline form ([2]; 60° C. (sealed) for 7 days): Not changed; Purity ([2]; initial state, 0 day): 99.85%; Crystalline form ([2]; room temperature/92.5% RH (open) for 10 days): Not changed; Crystalline form I after grinding ([3]; mechanically ground after dropwise addition of organic solvent (methanol, ethanol, acetone, acetonitrile, ethyl acetate, etc.)): not changed; Crystalline form I after grinding ([3]; mechanically ground using a mortar for 2 min): not changed; Crystalline form I after grinding ([3]; mechanically ground using a mortar for 5 min): not changed; Response as of the latest assessment ([4]; Subject S03008, 6 mg QD continuous, in the 18th treatment cycle): remains in PR; Cases achieving PR [4, 9]: 6 cases; Cases achieving SD [4, 9]: 21 cases; Cases of SD showing target lesion reduction ([4]; of 41 patients with esophageal squamous cell carcinoma (21 SD)): 11 cases; Target lesion reduction in SD case ([5]; 1 SD case of 2 patients with nasopharyngeal squamous cell carcinoma): also showed target lesion reduction; Maximum reduction in the target lesion ([5]; Subject S01001, stage IV, 2 mg (dose escalation) QD): 7.9%; Cases achieving SD ([5]; of 2 patients with nasopharyngeal squamous cell carcinoma): 1 case; Target lesion reduction among SD cases ([6]; 4 SD cases of 5 patients with pulmonary squamous cell carcinoma): all of which showed target lesion reduction; Maximum reduction in the target lesion ([6]; Subject S09009, stage IV, 4 mg QD continuous): 10.7%; Cases achieving SD ([6]; of 5 patients with pulmonary squamous cell carcinoma): 4 cases; Common (≥10%) adverse effects [7]: proteinuria, hypertension, hypoalbuminemia, decreased platelet count, decreased leukocyte count, increased alanine aminotransferase, increased aspartate aminotransferase, hyperuricemia, rash, anemia and fatigue; Overall safety [7]: overall safe and controllable; Severity of most adverse effects [7]: grade 2 or below; Solubility in buffer compared to compound A (Solubility experiment; Na2HPO4-citric acid buffer (pH 4.6)): better solubility in the buffer compared to compound A

Source: US20260174856A1, “USE OF HETEROARYLOXYNAPHTHALENE COMPOUND” (SHANGHAI RUNSHI MEDICAL TECHNOLOGY CO., LTD, priority 2022, published 2026)
